One assay deals with diabetes in TIP2 mice. To be noted: combination therapy: TIP2 mice expressing proinsulin plus 10 mg/kg twice daily oral from 12 to 14 weeks of age (cohort 3); p<0.005.
Assay [1] concerns IGRP-specific CD8+ T cells.
Experimental: IGRP was expressed in TII mice at 10-weeks of age. NOD mice were used as controls without antigen expression. At 13-weeks of age, mice were treated for 2 weeks with vehicle (Veh) or JAK inhibitor (JAKi). Mice were harvested for analysis immediately after treatment (2 week), or after a further 2 or 4 weeks with antigen alone (4 week and 6 week). The number of IGRP-specific CD8+ T cells in the peripheral lymphoid organs (PLO, top panel) or islets (bottom panel) is shown for each time point.
TII mice received doxycycline until 10-weeks of age. After doxycycline was removed, IGRP was expressed in antigen presenting cells of mice carrying both tetO-IGRP and IEα-tTA transgenes. Mice were treated with 10 mg/kg JAK inhibitor or vehicle between 13-15 w of age for 2 weeks. Mice were analysed at 2 weeks (harvest immediately after stopping JAK inhibitor), 4 weeks (harvest two weeks after stopping JAK inhibitor), and 6 weeks (harvest four weeks after stopping JAK inhibitor). Data is from 1-3 experiments per time point with 3-4 mice per group/experiment.
Cells were washed then stained with anti-PE MicroBeads (Miltenyi Biotec) and magnetically separated using an AutoMACSpro (Miltenyi Biotec).
Fluorescent-labelled monoclonal antibodies specific for CD4 (GK1.5) bound to APC-Cy7, CD8 (53-6.7) bound to FITC, CD3 (500A2) bound to AmCyan, CD44 (IM7) bound to Alexa Fluor 700, and CD11 b (M1/70), CD11c (N418) and Ly6G (RB6-8C5) bound to Pacific Blue were used to stain magnetically sorted cells. Analysis was performed using FACSFortessa (BD Bioscience) and FlowJo software (TreeStar). Single cells were gated on forward and side scatter, and dead cells excluded using propidium iodide. CD11 b^− CD11c^− Ly6G^− CD3^+ CD8^+ cells were gated as the target population for analysis of IGRP tetramer-positive T cells.
Another assay concerns the target JAK2 (Homo sapiens, UniProt O60674). Particulars: cited from earlier work.
In another assay the test system is other JAK-family kinases. Particulars: cited from earlier work.
The subject of assay [2] is JAK/STAT signalling (p-STAT1). The experiment in a line: IFNγ-mediated STAT1 phosphorylation in peripheral blood stimulated ex vivo after oral dosing (Western blot). More on the design: species or system NOD mice. Particulars: 80 mg/kg daily oral gavage from 2 to 4 weeks of age; blood taken 2 h after last dose, 100 U/mL IFNγ ex vivo; p=0.01.
Experimental: (A) NOD mice received 80 mg/kg ruxolitinib (n=5) or vehicle (n=5) daily by oral gavage from 2 to 4 weeks of age. Two hours after last dose of ruxolitinib or vehicle, peripheral blood was stimulated with 100 U/mL IFNγ ex vivo and analysed by Western blot for IFNγ-mediated phosphorylation of STAT1 and housekeeping protein β-actin. The intensity of p-STAT1 as a ratio of β-actin in arbitrary units (mean±SEM) was used to measure p-STAT1. p=0.01 using two-tailed unpaired t test.
The JAK1/JAK2 inhibitor ruxolitinib was purchased from Chemietek (USA). […] Mice receiving JAK inhibitor were treated with 80 mg/kg ruxolitinib daily by oral gavage from 2 to 4 weeks of age. Control mice received the same volume of vehicle by oral gavage.
Peripheral whole blood was stimulated with 100 U/mL IFN-γ (Biolegend) for 30 min at 37° C. […] Samples were further treated with radioimmunoprecipitation assay buffer (R0278, Sigma), sample buffer (10% SDS, 30% glycerol, 0.02% bromophenol blue in 250 mM Tris-HCl, pH 6.8) and β-mercaptoethanol. Near-infrared fluorescent western blotting was performed using anti-p-STAT1 antibody (BD Biosciences), normalized to β-actin (Santa Cruz Biotechnology) and scanned on an Odyssey CLx imager.
At 4 weeks of age, two hours after the last oral gavage of 80 mg/kg ruxolitinib or vehicle, peripheral blood and islets were harvested from NOD mice.

SMILES strings stand for the structures. Bounds are passed on as bounds.

This is an account of results in patent US11806386B2, “Type I diabetes therapy” (St. Vincent's Institute of Medical Research, priority 2017, dated 2023).

For orientation: IC50 means the concentration at which inhibition is half-maximal.

Sequence of JAK2 (O60674 whole entry, species assumed): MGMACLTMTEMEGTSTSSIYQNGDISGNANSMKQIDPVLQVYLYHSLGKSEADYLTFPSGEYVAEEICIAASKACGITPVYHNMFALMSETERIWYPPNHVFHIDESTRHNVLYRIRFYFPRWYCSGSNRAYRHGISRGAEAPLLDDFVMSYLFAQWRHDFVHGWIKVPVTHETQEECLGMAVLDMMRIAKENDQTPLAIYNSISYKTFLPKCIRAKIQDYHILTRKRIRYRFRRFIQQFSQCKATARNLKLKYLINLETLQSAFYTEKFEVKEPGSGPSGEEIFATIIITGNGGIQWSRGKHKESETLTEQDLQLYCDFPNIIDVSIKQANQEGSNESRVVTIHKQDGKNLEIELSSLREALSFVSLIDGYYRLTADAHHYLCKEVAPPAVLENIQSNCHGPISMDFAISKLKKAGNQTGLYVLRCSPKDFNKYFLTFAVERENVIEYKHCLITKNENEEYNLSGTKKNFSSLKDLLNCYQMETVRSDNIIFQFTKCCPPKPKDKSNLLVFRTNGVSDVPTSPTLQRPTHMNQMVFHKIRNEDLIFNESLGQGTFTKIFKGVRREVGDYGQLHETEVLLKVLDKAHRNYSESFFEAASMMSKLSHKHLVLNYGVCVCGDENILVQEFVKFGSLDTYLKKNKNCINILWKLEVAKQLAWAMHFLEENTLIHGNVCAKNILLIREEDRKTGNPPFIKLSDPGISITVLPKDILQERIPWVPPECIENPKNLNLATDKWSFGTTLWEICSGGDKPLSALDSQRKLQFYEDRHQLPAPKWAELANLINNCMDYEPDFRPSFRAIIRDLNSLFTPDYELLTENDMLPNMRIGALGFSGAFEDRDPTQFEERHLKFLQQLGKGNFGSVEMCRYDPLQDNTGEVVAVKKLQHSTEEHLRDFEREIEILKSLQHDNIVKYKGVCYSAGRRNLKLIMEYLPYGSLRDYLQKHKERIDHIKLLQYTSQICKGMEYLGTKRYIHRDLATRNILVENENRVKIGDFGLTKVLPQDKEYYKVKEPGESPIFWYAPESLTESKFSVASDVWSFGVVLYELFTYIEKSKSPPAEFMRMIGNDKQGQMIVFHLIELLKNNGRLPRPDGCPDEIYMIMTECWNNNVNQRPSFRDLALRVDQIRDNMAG
Experimental for diabetes in TIP2 mice: Mice were monitored for 30 weeks (210 days). […] Diabetes incidence curves compared using Log-Rank (Mantel-Cox) test.
Removal of doxycycline allowed the maximal recovery of proinsulin expression by 12 weeks (84 days) of age.
Mice receiving JAK inhibitor were treated with 10 mg/kg dose twice daily by oral gavage from 12 to 14 weeks (day 84-98) of age. Control mice received the same volume of vehicle by oral gavage.
Female mice were monitored for diabetes weekly by measurement of urinary glucose levels using Diastix (Bayer). Those suspected of hyperglycaemia had further blood glucose level testing on two consecutive days using ACCU-CHEK Advantage II strips (Roche). Mice with two consecutive blood glucose measurements of greater than or equal to 15 mM were considered diabetic.
TIP2 mice were administered doxycycline until 8 weeks of age to suppress proinsulin expression. At 12 weeks of age TIP2 mice received JAK inhibitor (combination therapy; cohort 3; FIG. 4A) or vehicle (proinsulin monotherapy; cohort 2).

For the compound `CC(C)(C)c1nc2c3cc[nH]c(=O)c3c3cc(F)ccc3c2[nH]1` [JAK inhibitor], the “protection from diabetes at 30 weeks of age (210 days)” value in the assay with diabetes in TIP2 mice is “significantly protected from diabetes”. For the same compound, the “IGRP specific memory T cells 2 weeks after cessation of treatment” value in assay [1] (NOD mice without antigen expression (NOD-JAKi)) is reported as “returned”. The “IGRP specific memory T cells in PLO and in islets immediately after 2 weeks of treatment” value in assay [1] (TII mice expressing IGRP from 10 weeks, 10 mg/kg for 2 weeks, TII-Veh vs TII-JAKi) is listed as “decrease”. In assay [1] (TII mice with antigen expression (TII-JAKi), islets at 6 weeks p=0.02, PLO p=0.054), the “IGRP specific memory T cell numbers after cessation of treatment” value is “remained low”.

For the compound `C[C@H](Nc1cc(-c2cnn(C)c2)cc(Nc2cnccn2)n1)c1ccc(F)cc1` [NS018], the 50% inhibitory concentration (IC50) at JAK2 is below 1 nM. Besides, the “selectivity for JAK2 over other JAK-family kinases” value in the assay with other JAK-family kinases is 30-50 fold.

`N#CC[C@H](C1CCCC1)n1cc(-c2ncnc3[nH]ccc23)cn1` [ruxolitinib]: in assay [2], the “reduction of STAT1 phosphorylation compared to vehicle-treated NOD mice” value is on record as “greater than 50%”.
